Experimental data published in patent US20020137929A1, “1 - (3-heterocyclylphenyl) isothiourea, -isourea, -guanidine and -amidine herbicidal agents” (Intellectual Property Department, BASF Aktiengesellschaft, priority 1998, published 2002).

Columns and labels:
ABUTH (Velvetleaf) = experiment: Preemergence herbicidal evaluation; type: in vivo, Abutilon theophrasti; conditions: rated 4-5 weeks after treatment
Method in brief: (§1)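 Steps: mix seeds into potting soil; plant atop ~1 inch soil; spray compound in aqueous acetone (~0.0156-0.500 kg/ha equivalent); maintain in greenhouse with watering; rate visually 0-9 versus control at 4-5 weeks.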

SETVI (Foxtail, Green) = experiment: Postemergence herbicidal evaluation; type: in vivo, Setaria viridis; conditions: postemergence
Method in brief: (§2)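 Visual 0-9 injury score (stand, vigor, malformation, size, chlorosis, appearance vs untreated) taken four to five weeks post-spray, averaged across repeat tests. Test plants about two weeks old; foliar spray of acetone/water (1:1) with 0.5% surfactant delivering ~0.0156-0.500 kg active/ha.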

[1] = system: IPOHE (Morningglory, Ivyleaf); experiment: Postemergence herbicidal evaluation; type: in vivo, Ipomoea hederacea; conditions: postemergence
Method in brief: as §2

[2] = system: TRZAWR (Wheat, Winter, cv Riband); experiment: Postemergence herbicidal evaluation; type: in vivo, Triticum aestivum; conditions: postemergence
Method in brief: as §2

ECHCG (Barnyardgrass) [3] = experiment: Preemergence herbicidal evaluation; type: in vivo, Echinochloa crus-galli; conditions: rated 4-5 weeks after treatment
Method in brief: as §1

ECHCG (Barnyardgrass) [4] = experiment: Postemergence herbicidal evaluation; type: in vivo, Echinochloa crus-galli; conditions: postemergence
Method in brief: as §2

[5] = system: GLXMAW (Soybean, Williams); experiment: Postemergence herbicidal evaluation; type: in vivo, Glycine max, (L.) Merr. cv Williams; conditions: postemergence
Method in brief: as §2

[6] = system: CHEAL (Lambsquarters, Common); experiment: Postemergence herbicidal evaluation; type: in vivo, Chenopodium album; conditions: postemergence
Method in brief: as §2

MOOVA (Monochoria) = experiment: Preemergence weed control under flooded paddy conditions; type: in vivo, Monochoria vaginalis; conditions: rated 3-4 weeks after treatment
Method in brief: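 Flooded-pot preemergence screen with silt loam and seeds in the upper 0.5 cm. Dose about 0.0313 to 0.500 kg/ha, delivered into flood water; visual 0-9 score after 3 to 4 weeks.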

GALAP (Galium) = experiment: Postemergence herbicidal evaluation; type: in vivo, Galium aparine; conditions: postemergence
Method in brief: as §2

CYPIR (Rice Flatsedge) = experiment: Preemergence weed control under flooded paddy conditions; type: in vivo, Cyperus iria; conditions: rated 3-4 weeks after treatment
Method in brief: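 Visual injury scored 0-9 against control three to four weeks post-treatment, greenhouse-grown. Application: acetone/water (50/50) solutions dosed directly into flood water (1.5-3 cm over silt loam, planted top 0.5 cm), roughly 0.0313 to 0.500 kg/ha active ingredient.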

ZEAMX (Corn, Field) = experiment: Preemergence herbicidal evaluation; type: in vivo, Zea mays; conditions: rated 4-5 weeks after treatment
Method in brief: as §1

CASOB (Sicklepod) = experiment: Postemergence herbicidal evaluation; type: in vivo, Cassia obtusifolia; conditions: postemergence
Method in brief: as §2

C#CCOC(=O)CN1C(=O)CSC1=Nc1cc(-n2c(=O)cc(C(F)(F)F)n(C)c2=O)c(F)cc1Cl [Compound 115, 2-Propynyl 2-{{2-chloro-5-[3,6-dihydro-3-methyl-2,6-dioxo-4-(trifluoromethyl)-1(2H)-pyrimidinyl]-4-fluorophenyl}imino}-4-oxo-3-thiazolidineacetate]
Preemergence herbicidal rating ABUTH (ABUTH (Velvetleaf); rate 0.0156 kg/ha): 0.0 | Preemergence herbicidal rating ABUTH (ABUTH (Velvetleaf); rate 0.0313 kg/ha): 0.0 | Preemergence herbicidal rating ABUTH (ABUTH (Velvetleaf); rate 0.0625 kg/ha): 0.0 | Preemergence herbicidal rating ABUTH (ABUTH (Velvetleaf); rate 0.1250 kg/ha): 9.0 | Preemergence herbicidal rating ABUTH (ABUTH (Velvetleaf); rate 0.2500 kg/ha): 9.0 | Herbicidal rating SETVI (SETVI (Foxtail, Green); rate 0.0158 kg/ha): 0.0 | Herbicidal rating SETVI (SETVI (Foxtail, Green); rate 0.0315 kg/ha): 4.0 | Herbicidal rating SETVI (SETVI (Foxtail, Green); rate 0.0630 kg/ha): 9.0 | Herbicidal rating IPOHE ([1]; rate 0.0158 kg/ha): 9.0 | Herbicidal rating IPOHE ([1]; rate 0.0315 kg/ha): 9.0 | Herbicidal rating IPOHE ([1]; rate 0.0630 kg/ha): 9.0 | Herbicidal rating TRZAWR ([2]; rate 0.0158 kg/ha): 1.5 | Herbicidal rating TRZAWR ([2]; rate 0.0315 kg/ha): 2.5 | Herbicidal rating TRZAWR ([2]; rate 0.0630 kg/ha): 3.0 | Preemergence herbicidal rating ECHCG (ECHCG (Barnyardgrass) [3]; rate 0.0156 kg/ha): 0.0 | Preemergence herbicidal rating ECHCG (ECHCG (Barnyardgrass) [3]; rate 0.0313 kg/ha): 0.0 | Preemergence herbicidal rating ECHCG (ECHCG (Barnyardgrass) [3]; rate 0.0625 kg/ha): 0.0 | Preemergence herbicidal rating ECHCG (ECHCG (Barnyardgrass) [3]; rate 0.1250 kg/ha): 0.0 | Preemergence herbicidal rating ECHCG (ECHCG (Barnyardgrass) [3]; rate 0.2500 kg/ha): 0.0 | Herbicidal rating ECHCG (ECHCG (Barnyardgrass) [4]; rate 0.0158 kg/ha): 0.0 | Herbicidal rating ECHCG (ECHCG (Barnyardgrass) [4]; rate 0.0315 kg/ha): 2.0 | Herbicidal rating ECHCG (ECHCG (Barnyardgrass) [4]; rate 0.0630 kg/ha): 3.0 | Herbicidal rating GLXMAW ([5]; rate 0.0158 kg/ha): 5.0 | Herbicidal rating GLXMAW ([5]; rate 0.0315 kg/ha): 5.0 | Herbicidal rating GLXMAW ([5]; rate 0.0630 kg/ha): 5.0 | Herbicidal rating CHEAL ([6]; rate 0.0158 kg/ha): 0.0 | Herbicidal rating CHEAL ([6]; rate 0.0315 kg/ha): 1.0 | Herbicidal rating CHEAL ([6]; rate 0.0630 kg/ha): 4.0 | MOOVA herbicidal effect rating (MOOVA (Monochoria); 0.0313 kg/ha): 7.0 | MOOVA herbicidal effect rating (MOOVA (Monochoria); 0.0625 kg/ha): 9.0 | MOOVA herbicidal effect rating (MOOVA (Monochoria); 0.1250 kg/ha): 9.0 | MOOVA herbicidal effect rating (MOOVA (Monochoria); 0.2500 kg/ha): 9.0 | Herbicidal rating GALAP (GALAP (Galium); rate 0.0158 kg/ha): 0.0 | Herbicidal rating GALAP (GALAP (Galium); rate 0.0315 kg/ha): 0.0 | Herbicidal rating GALAP (GALAP (Galium); rate 0.0630 kg/ha): 2.0 | CYPIR herbicidal effect rating (CYPIR (Rice Flatsedge); 0.0313 kg/ha): 5.0 | CYPIR herbicidal effect rating (CYPIR (Rice Flatsedge); 0.0625 kg/ha): 6.0 | CYPIR herbicidal effect rating (CYPIR (Rice Flatsedge); 0.1250 kg/ha): 9.0 | CYPIR herbicidal effect rating (CYPIR (Rice Flatsedge); 0.2500 kg/ha): 9.0 | Preemergence herbicidal rating ZEAMX (ZEAMX (Corn, Field); rate 0.0156 kg/ha): 0.0 | Preemergence herbicidal rating ZEAMX (ZEAMX (Corn, Field); rate 0.0313 kg/ha): 0.0 | Preemergence herbicidal rating ZEAMX (ZEAMX (Corn, Field); rate 0.0625 kg/ha): 0.0 | Preemergence herbicidal rating ZEAMX (ZEAMX (Corn, Field); rate 0.1250 kg/ha): 1.0 | Preemergence herbicidal rating ZEAMX (ZEAMX (Corn, Field); rate 0.2500 kg/ha): 2.0 | Herbicidal rating CASOB (CASOB (Sicklepod); rate 0.0158 kg/ha): 0.0 | Herbicidal rating CASOB (CASOB (Sicklepod); rate 0.0315 kg/ha): 1.0 | Herbicidal rating CASOB (CASOB (Sicklepod); rate 0.0630 kg/ha): 1.0
